Assays:
[1] = tested on: bFGF-stimulated human umbilical vascular EC (HUVEC); assay: EC proliferation measurement, [3H]-thymidine incorporation assay; format: cell-based; settings: for IC50: bFGF-stimulated (10 ng/ml) HUVEC, 3H-thymidine incorporation, 3 days; for EC Proliferation % Inhibition at 25 μM: bFGF-stimulated HUVEC
Experimental: Human umbilical vein derived EC (HUVEC) were harvested from normal human umbilical cords by perfusion with 0.125% trypsin/EDTA. Harvested HUVECs were cultured in gelatin coated tissue culture flasks and subcultured 1:3 once a week in culture medium (RPMI-1640 with 20% human serum (HS), supplemented with 2 mM glutamine and 100 U/ml penicillin and 0.1 mg/ml streptomycin). Bovine capillary EC (BCE) were kindly provided by Dr. M. Furie (State University of New York, Stony Brook, USA) and were cultured in fibronectin coated tissue culture flasks in RPMI-1640 medium containing 10% FCS, glutamine and antibiotics.
EC proliferation was measured using a [^3H]-thymidine incorporation assay. Proliferation of bFGF-stimulated (10 nanogram per milliliter (ng/ml)) human umbilical vascular EC (HUVEC) cultures was measured by quantification of ^3H-thymidine incorporation. Proliferation is expressed as mean counts per minute (cpm) of quadruplicate cultures in three independent experiments (±SEM). EC were seeded at 5000 cells/well in flat-bottomed tissue culture plates and grown for 3 days in the absence or presence of regulators, in culture medium. During the last 6 hours of the assay, the culture was pulsed with 0.5 μCi [methyl-^3H]-thymidine/well. Human umbilical vein derived EC (HUVEC) were harvested from normal human umbilical cords by perfusion with 0.125% trypsin/EDTA. Harvested HUVECs were cultured in gelatin coated tissue culture flasks and subcultured 1:3 once a week in culture medium (RPMI-1640 with 20% human serum (HS), supplemented with 2 mM glutamine and 100 U/ml penicillin and 0.1 mg/ml streptomycin).

[2] = tested on: MA148 human ovarian carcinoma; assay: MA148 xenograft ovarian carcinoma tumor model in athymic mice, tumor volume; settings: for Inhibition of tumor growth ten days post-treatment: at sacrifice
Experimental: In all studies, female athymic nude mice (nu/nu, 5-6 weeks old) were used. These mice were purchased from the National Cancer Institute and allowed to acclimatize to local conditions for at least one week. Animals were given water and standard chow ad libitum, and were kept on a 12-hour light/dark cycle. […] Compounds were diluted in 100 mM SDS and administered using osmotic mini-pumps (Durect, Cupertino, Calif.). Exponentially growing MA148 human ovarian carcinoma cells, kindly provided by Prof. Ramakrishnan (R. P. Dings et al., Cancer Res., 63, 382-385 (2003)) were cultured in RPMI 1640 medium (Life Technologies, Grand Island, N.Y.). This medium was supplemented with 10% fetal bovine serum and 1% penicillin/streptomycin (Cellgro, Mediatech, Washington, D.C.) at 37° C. and 5% CO2. One hundred microliters (100 μL) of this tumor cell suspension (2×10^7 cells/ml) was then injected subcutaneously into the right flank of each mouse. Pumps were implanted into the left flank of mice for subcutaneous administration of compound over a 28-day treatment span.
Two variants of this model were used: prevention and intervention. For the prevention variant, treatment was initiated at the time of inoculation with MA148 cells. For the intervention variant, tumors were allowed to grow to an average size of 50 mm^3 (usually day 7 post inoculation) before treatment was initiated. With either variant, animals were randomized prior to the initiation of treatment. Treatment was administered via osmotic mini-pumps (Durect, Cupertino, Calif.), which were implanted subcutaneously in the left flank of mice. […] In each study, control groups of animals were administered either PBS or PBS containing human serum albumin.
Tumor volume was determined by measuring the diameters of tumors using calipers (Scienceware, Pequannock, N.J.) using the equation for the volume of a spheroid: (a^2×b×π)/6, where ‘a’ is the width and ‘b’ the length of the tumor. Measurements were performed two or three times per week. At the conclusion of an experiment, tumor weights were also taken following excision of the tumors from euthanized animals.

[3] = tested on: MA148 human ovarian carcinoma tumors; assay: Immunohistochemistry of tumor sections (CD31 microvessel density, PCNA proliferation, TUNEL apoptosis); format: in vivo, mice; settings: for Vessel density relative to control: anti-CD31 staining of tumor cross-sections; for End Points (mean number of vessel end points) / Branch Points (mean number of vessel branch points/nodes per image) / Proliferation (PCNA-staining, white pixels per field) / Vessel Density (CD31-staining, white pixels per field) / Vessel Length (mean total vessel length per image): tumors of treated mice, ± standard error; for End Points (mean number of vessel end points): after skeletonization
Experimental: Immunohistochemistry was used to assess microvessel density and the extent of total cell apoptosis. Tumor tissue was embedded in tissue freezing medium (Miles Inc, Elkart, Ind.) and shock frozen in liquid nitrogen. […] sections of tissue were prepared for immunohistochemical analysis. For this, tissue sections were brought to room temperature, air dried overnight, and then fixed in acetone for 10 minutes. Slides were allowed to air dry for at least 30 minutes and were washed three times for 5 minutes each in phosphate-buffered saline (PBS, pH 7.4). Samples were then blocked with PBS containing 0.1% bovine serum albumin and 3% human serum albumin for at least 30 minutes at room temperature in a humidified box. Samples were subsequently incubated with phycoerytrin (PE)-conjugated monoclonal antibody to CD31 (PECAM-1) in a 1:50 dilution (Pharmigen, San Diego, Calif.) to stain for microvessel density. After 1-hour incubation at room temperature, slides were washed with PBS and immediately imaged using an Olympus BX-60 fluorescence microscope at 200× magnification.
To assess the extent of total cell apoptosis, tissue sections were stained by using the TUNEL (terminal deoxyribonucleotidyl transferase-mediated dUTP-nick-end labeling) assay, which was performed according to the manufacturer's instructions (in situ cell death detection kit, fluorescein; TUNEL, Roche). Digital images were stored and processed using Adobe Photoshop (Adobe Inc., Mountain View Calif.).
Quantification of microvessel density, the rate of proliferation and total cell apoptosis were determined as described earlier (R. Wild et al., Microvasc. Res., 59, 368-376 (2000)). Statistical analysis was performed using the Student's t test.

bovine EC (BCE) = assay: In vitro angiogenesis assay, collagen gel-based sprout formation; format: cell-based; design: key to % Sprouting: —: No effect on the assay; settings: for % Sprouting: BCE on cytodex-3 beads in collagen gel, 20 ng/mL bFGF, 24 hours, * = significant inhibition (p < 0.03); for Sprouting in collagen gel-based sprout formation assay: versus control showing numerous sprouts, data not shown
Experimental: Sprouting and tube formation of bovine EC (BCE) were studied using cytodex-3 beads overgrown with BCE in a 3-dimensional collagen gel (vitrogen-100, Collagen Corp., Fremont, Calif., USA) as described in D. Van der Schaft et al., Blood, 96,176-181 (2000). Following gelation, culture medium containing 20 ng/mL bFGF, with or without […] or DBF analogs, was applied on top of the gel. After 24 hours of cell culture at 37° C., photographs were made (not shown). The amount of sprouting in each well (i.e., the total length of the sprouts) was quantified by the computer program NIH image. To quantify differences in sprouting and tube formation, statistical analysis was performed using the Mann-Whitney U test.

Substance	IC50 [1]	EC Proliferation % Inhibition at 25 μM [1]	% Sprouting (bovine EC (BCE))	also measured
ANIKLSVQMKL-[DBF]-I [11DBF1]	23 ± 5 µM			
ANIKLSVQMKL-[DBF]-IIVK [11DBF4]	35 µM			
ANIKLSVQMKL-[DBF]-IIVKLN [11DBF6]	22 µM			
ANIKLSVQMKL-[DBF]-IIVKLND [11DBF7]	12 µM	92%	23 ± 10%*	Inhibition of tumor growth at the end of the four-week administration period (day 35) ([2]; intervention, day 35): about 50%; Inhibition of tumor growth ten days post-treatment ([2]; intervention): about 50%; Reduction of tumor volume relative to control animals ([2]; prevention model: treatment from time of inoculation, subcutaneous mini-pumps, 10 mg/kg/day): up to 90%; Vessel density relative to control [3]: significantly reduced; End Points (mean number of vessel end points) [3]: 21.2 ± 3.3 mean pixel counts per image; Branch Points (mean number of vessel branch points/nodes per image) [3]: 3.1 ± 0.9 mean pixel counts per image; Proliferation (PCNA-staining, white pixels per field) [3]: 553 ± 75 mean pixel counts per image; Vessel Density (CD31-staining, white pixels per field) [3]: 2879 ± 385 mean pixel counts per image; Vessel Length (mean total vessel length per image) [3]: 3.0 ± 0.6 mean pixel counts per image; Sprouting in collagen gel-based sprout formation assay (bovine EC (BCE)): highly reduced sprouting
IKLSVQMKL-[DBF]-IIVKLND [9DBF7]	20 µM	57%	76 ± 40%*	
L-[DBF]-IIVKLND [1DBF7]	> 25 µM	0%	—	
MKL-[DBF]-IIVKLND [3DBF7]	> 25 µM	0%	84 ± 30%	
NIKLSVQMKL-[DBF]-IIVKLND [10DBF7]	12 µM	69%	57 ± 17.5%*	
QMKL-[DBF]-IIVKLND [4DBF7]	25 µM	46%	99 ± 5%	
SVQMKL-[DBF]-I [6DBF1]	76.1 ± 10.9 µM			
SVQMKL-[DBF]-II [6DBF2]	> 25 µM			
SVQMKL-[DBF]-IIV [6DBF3]	> 25 µM			
SVQMKL-[DBF]-IIVK [6DBF4]	> 25 µM			
SVQMKL-[DBF]-IIVKLN [6DBF6]	42 µM			
SVQMKL-[DBF]-IIVKLND [6DBF7]	15 µM	68%	60 ± 12%*	Inhibition of tumor growth ten days post-treatment ([2]; intervention): about 50%; Number of apoptotic tumor cells ([3]; TUNEL, control 311±103): 851±162; Vessel density relative to control [3]: significantly reduced; End Points (mean number of vessel end points) [3]: 21.7 ± 2.6 mean pixel counts per image; Branch Points (mean number of vessel branch points/nodes per image) [3]: 2.3 ± 1.1 mean pixel counts per image; Proliferation (PCNA-staining, white pixels per field) [3]: 501 ± 68 mean pixel counts per image; Vessel Density (CD31-staining, white pixels per field) [3]: 2213 ± 256 mean pixel counts per image; Vessel Length (mean total vessel length per image) [3]: 2.5 ± 0.4 mean pixel counts per image; Effect on tube formation (bovine EC (BCE)): significant inhibitory effect on tube formation; Sprouting in collagen gel-based sprout formation assay (bovine EC (BCE)): highly reduced sprouting

Reference: US7339023B2, “Partial peptide mimetics and methods” (Regents of the University of Minnesota, priority 2002, dated 2008)
